In article PMC7346217, “Insight of Polyphenol Oxidase Enzyme Inhibition and Total Polyphenol Recovery from Cocoa Beans” (Antioxidants, 2020):

System: T1, polyphenol oxidase (PPO) from cocoa beans
T1 construct: native; isoenzyme not identified
Assay: spectrophotometric oxidation ([…] nm), Michaelis-Menten nonlinear regression
Assay type: biochemical, Theobroma cacao
Settings: crude extract of non-treated beans; McIlvaine buffer pH 6.5; 35 °C; substrate 5-200 mM

| Km | Structure (SMILES) |
| --- | --- |
| 1260 ± 370 µM | Oc1cc(O)c2c(c1)O[C@H](c1ccc(O)c(O)c1)[C@H](O)C2 [(−)-epicatechin] |
| 1450 ± 350 µM | Oc1cc(O)c2c(c1)O[C@H](c1ccc(O)c(O)c1)[C@@H](O)C2 [(+)-catechin] |

| Structure (SMILES) | Km |
| --- | --- |
| Oc1ccccc1O [catechol] | 610 ± 120 µM |
